Legend:
pY1175 VEGFR2 = test: In cell Western for detecting inhibition of VEGFR2 activation by VEGF-A165; format: cell-based, mouse; settings: CAD cells, absence of stimulation by VEGF-A
SNI rats = test: Spared nerve injury (SNI)-induced mechanical allodynia, paw withdrawal threshold; format: in vivo, rats (Sprague Dawley, male); settings: day 21 after surgery, 2.14 mg/5 ml intrathecally, n=5
Protocol: FIG. 8 is a line graph showing antagonism of NRP-1/VEGF-A signaling using compound 4. […] SNI elicited mechanical allodynia 21 days after surgery. Paw withdrawal thresholds for SNI rats (Sprague Dawley, male) administered saline (vehicle) or NRP-1 inhibitor (2.14 mg/5 ml) intrathecally (i.t.); n=5). P values, versus control, are indicated. Data are shown as mean±s.e.m. and were analyzed by non-parametric two-way analysis of variance where time was the within subject factor and treatment was the between subject factor (post hoc: Sidak). The experiments were analyzed by an investigator blinded to the treatment. […]
The assessment of tactile allodynia (i.e., a decreased threshold for paw withdrawal after probing with normally innocuous mechanical stimuli) involved testing the withdrawal threshold of the paw in response to probing with a series of calibrated fine (von Frey) filaments. […] The withdrawal threshold was determined by sequentially increasing and decreasing the stimulus strength (the ‘up and down’ method, and the data analyzed using the nonparametric method of Dixon (as described by Chaplan and Bach, J. Neurosci. Meth. 1994, 53, 55-63) with results expressed as the mean withdrawal threshold. The withdrawal threshold is a level that is statistically significant. Typically, greater than 50% deviation from the baseline could be allodynic.

NRP-1/VEGF-A interaction [1] = target: T1, NRP-1/VEGF-A interaction (Homo sapiens, UniProt O14786); test: ELISA-based NRP1-VEGF-A165 protein binding assay (single concentration); settings: compounds 12.5 μM (Spike S1 100 nM), biotinylated VEGF-A165 10 nM; ± standard error of the mean, n = 11
T1 construct: coated with the extracellular domain of human NRP-1 (containing the a1a2 and the b1b2 regions); purchased Fisher, Hampton, NH 50-101-8343
T1 sequence (O14786 22-856 limits assumed): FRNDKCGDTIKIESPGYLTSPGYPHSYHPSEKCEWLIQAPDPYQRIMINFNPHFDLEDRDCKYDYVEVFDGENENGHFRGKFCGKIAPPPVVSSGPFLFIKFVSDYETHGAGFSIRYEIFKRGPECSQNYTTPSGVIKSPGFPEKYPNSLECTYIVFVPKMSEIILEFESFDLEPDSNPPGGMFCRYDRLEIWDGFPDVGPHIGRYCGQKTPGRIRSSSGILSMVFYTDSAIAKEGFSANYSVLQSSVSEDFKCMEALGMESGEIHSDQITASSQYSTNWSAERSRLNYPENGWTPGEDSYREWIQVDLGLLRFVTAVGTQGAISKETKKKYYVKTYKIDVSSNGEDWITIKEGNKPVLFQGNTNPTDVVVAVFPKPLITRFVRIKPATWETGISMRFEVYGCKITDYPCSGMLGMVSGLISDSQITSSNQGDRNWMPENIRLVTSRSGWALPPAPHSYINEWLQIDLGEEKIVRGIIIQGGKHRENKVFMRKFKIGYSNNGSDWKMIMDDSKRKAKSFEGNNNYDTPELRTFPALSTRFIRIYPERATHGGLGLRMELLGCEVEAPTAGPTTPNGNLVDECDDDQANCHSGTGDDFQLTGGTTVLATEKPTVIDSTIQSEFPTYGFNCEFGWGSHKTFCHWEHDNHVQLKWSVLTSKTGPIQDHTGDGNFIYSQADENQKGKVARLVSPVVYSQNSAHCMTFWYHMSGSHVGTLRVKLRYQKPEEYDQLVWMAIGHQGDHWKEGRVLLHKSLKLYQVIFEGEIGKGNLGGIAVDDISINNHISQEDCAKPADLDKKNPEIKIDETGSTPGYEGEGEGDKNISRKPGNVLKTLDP

NRP-1/VEGF-A interaction [2] = target: T1, NRP-1/VEGF-A interaction; test: ELISA-based NRP1-VEGF-A165 protein binding assay (concentration-response, IC50); settings: 20 nM biotinylated hVEGF-A165 with 4 μg/ml heparin, n=3, read-out: Calculated IC50 values of inhibiting the NRP-1/VEGF-A interaction
Protocol: Plates (96-well, Nunc Maxisorp; Thermo Fisher Scientific, Waltham, MA, USA) were coated with human Neuropilin-1-Fc (200 ng per well, Cat #50-101-8343, Fisher, Hampton, NH) and incubated at 4° C. overnight. The following day, the plates were washed and blocked with 3% BSA in PBS to minimize non-specific adsorptive binding to the plates. EG00229 (Cat #6986, Tocris) or the indicated compounds were added at different concentrations and incubated for 30 min at room temperature prior to adding biotinylated human VEGF-A165 (Cat #BT10543-025, R&D systems) at 20 nM with 4 μg/ml of heparin. As a negative control, some wells received PBS containing 3% BSA and as a positive control only hVEGF-A165 was used. The plates were incubated at room temperature with shaking for 2 h. Next, the plates were washed with PBS 0.05% Tween to eliminate unbound protein. Bound biotinylated VEGF was detected by streptavidin-HRP (Cat #016-030-084, Jackson immunoResearch). Tetramethylbenzidine (Cat #DY999, R&D Systems, St. Louis, MO) was used as the colorimetric substrate. The optical density of each well was determined immediately, using a microplate reader (Multiskan Ascent; Thermo Fisher Scientific) set to 450 nm with a correction wavelength of 570 nm. Percentage of inhibition was calculated by the following formula: […]
where S is the optical density measured in the wells with the compounds, N is the optical density measured in the negative control wells and P is the optical density in the positive control wells. The IC50 was calculated using a non-linear regression function with GraphPad Prism Version 9. The data are presented as log (inhibitor) [M] versus normalized response-variable slope. Data are the means±S.E.M. of three independent experiments.
Finally, the ability of the compounds to interfere with the NRP-1NEGF-A interaction was evaluated using an enzyme linked immunosorbent assay (ELISA), as previously described (Moutal, et al., Pain 2021, 12(1), 243-252). Plates were coated with the extracellular domain of human NRP-1 (containing the a1a2 and the b1b2 regions) and the compounds were added to disrupt the NRP-1NEGF-A interaction. The biotinylated human VEGF-A used in the experiments described above (Moutal, et al., Pain 2021, 12(1), 243-252) was discontinued. For the instant studies, biotinylated hVEGF-A (Cat #BT10543-025, R&D systems) was used. Because of that, the known NRP-1 antagonist EG00229 and compound 4 from the above series of inhibitors (Moutal, et al., Pain 2021, 12(1), 243-252) were also tested in the instant studies.

Cc1nc(N2CCOCC2)ncc1-c1cc(=O)[nH]c(Nc2ccccc2)n1 [Compound 4]
inhibition of basal VEGFR2 phosphorylation (pY1175 VEGFR2): showed inhibition
reversal of SNI-induced mechanical allodynia (paw withdrawal threshold) (SNI rats): reverses spared nerve injury (SNI)-induced mechanical allodynia
Rel % inhibition (NRP-1/VEGF-A interaction [1]): 68 ± 5%
IC50 (NRP-1/VEGF-A interaction [2]): 8.4 µM

— patent publication US20240002361A1, “COMPOSITIONS AND METHODS FOR BLOCKING NEUROPILIN RECEPTOR 1 FOR THE TREATMENT OF PAIN AND PREVENTION OF VIRAL ENTRY” (Arizona Board of Regents on Behalf of the University of …, priority 2020, published 2024)
